Measurements: patent US8691993B2, “Piperidinyl naphthylacetic acids” (Hoffman-La Roche Inc., priority 2011, dated 2014)

test system: Th2 cells; experiment: DK-PGD2-Induced IL-13 Production Assay in Th2 Cells; format: cell-based; settings: inhibition of IL-13 production; human Th2 cells; 500 nM DK-PGD2; 4 hrs at 37° C.; ELISA
Experimental: DK-PGD2-Induced IL-13 Production Assay in Th2 Cells
Inhibition of 13,14-dihydro-15-keto Prostaglandin D2 (DK-PGD2)-induced IL-13 production in T helper type 2 (Th2) cells was applied to evaluate compound cellular potency.
Cultures of Th2 cells were established from blood of healthy human volunteers according to the following procedure. Peripheral blood mononuclear cells (PBMC) were first isolated from 50 mL of fresh blood by Ficoll-Hypaque density gradient centrifugation, followed by CD4^+ cell purification using a CD4^+ T Cell Isolation Kit II (from Miltenyi Biotec Inc.). The CD4^+ T cells were then differentiated to Th2 cells by culturing the cells in X-VIVO 15® medium (from Cambrex BioScience Walkersville Inc.) containing 10% human AB serum (serum of blood type AB from Invitrogen Corporation), 50 U/mL of recombinant human interleukin-2 (rhIL-2) (from PeproTech Inc.) and 100 ng/mL of recombinant human interleukin-4 (rhIL-4) (from PeproTech Inc.) for 7 days. The Th2 cells were isolated using a CD294 (CRTH2) MicroBead Kit (from Miltenyi Biotec Inc.) and amplified in X-VIVO 15® medium containing 10% human AB serum and 50 U/mL of rhIL-2 for 2 to 5 weeks. In general, 70% to 80% of the Th2 cells used in the assay are CRTH2-positive when analyzed by fluorescence-activated cell sorting using the BM16 antibody (as previously described) conjugated to Alexa Fluor 647.
The spontaneous production of IL-13 by Th2 cells was determined in the absence of DK-PGD2 stimulation and the value was subtracted from that in the presence of each compound for percent inhibition and IC50 calculations.
The percent inhibition of interleukin 13 (IL-13) production for a compound at various concentrations was calculated according to the following formula, [1-(IL-13 production in the presence of compound)/(IL-13 production in the presence of 0.15% DMSO)]×100. The IC50 value, defined as the concentration of a compound that is required for 50% inhibition of IL-13 production, was calculated by fitting the percent inhibition data for 7 concentrations to a sigmoidal dose-response (4 parameter logistic) model in the XLfit® software Excel add-in program [ID Business Solutions Ltd., model 205, where F(x)=(A+(B−A)/(1+((C/x)^D)))].

In order of rising IC50:
1. Cc1c(CC(=O)O)cc2ccc(F)cc2c1C1CCN(S(=O)(=O)Cc2ccccc2)CC1 [Example 19, [6-Fluoro-3-methyl-4-(1-phenylmethanesulfonyl-piperidin-4-yl)-naphthalen-2-yl]-acetic acid]  8 nM
2. COc1ccccc1S(=O)(=O)N1CCC(c2c(C)c(CC(=O)O)cc3ccc(F)cc23)CC1 [Example 20, {6-Fluoro-4-[1-(2-methoxy-benzenesulfonyl)-piperidin-4-yl]-3-methyl-naphthalen-2-yl}-acetic acid]  9 nM
3. Cc1c(CC(=O)O)cc2ccc(F)cc2c1C1CCN(S(=O)(=O)N2CCCC2)CC1 [Example 25, {6-Fluoro-3-methyl-4-[1-(pyrrolidine-1-sulfonyl)-piperidin-4-yl]-naphthalen-2-yl}-acetic acid]  14 nM
4. Cc1c(CC(=O)O)cc2ccc(F)cc2c1C1CCN(C(=O)c2c(Cl)cccc2Cl)CC1 [Example 29, {4-[1-(2,6-Dichloro-benzoyl)-piperidin-4-yl]-6-fluoro-3-methyl-naphthalen-2-yl}-acetic acid]  20 nM
5. Cc1c(CC(=O)O)cc2ccc(F)cc2c1C1CCN(S(=O)(=O)c2ccc(Cl)cc2Cl)CC1 [Example 16, {4-[1-(2,4-Dichloro-benzenesulfonyl)-piperidin-4-yl]-6-fluoro-3-methyl-naphthalen-2-yl}-acetic acid]  22 nM
6. Cc1c(CC(=O)O)cc2ccc(F)cc2c1C1CCN(S(=O)(=O)Cc2ccc(Cl)cc2)CC1 [Example 22, {4-[1-(4-Chloro-phenylmethanesulfonyl)-piperidin-4-yl]-6-fluoro-3-methyl-naphthalen-2-yl}-acetic acid]  23 nM
7. Cc1c(CC(=O)O)cc2ccc(F)cc2c1C1CCN(S(=O)(=O)C2CCCC2)CC1 [Example 24, [4-(1-Cyclopentanesulfonyl-piperidin-4-yl)-6-fluoro-3-methyl-naphthalen-2-yl]-acetic acid]  23 nM
8. Cc1c(CC(=O)O)cc2ccc(F)cc2c1C1CCN(S(=O)(=O)Cc2ccccc2N)CC1 [Example 27, {4-[1-(2-Amino-phenylmethanesulfonyl)-piperidin-4-yl]-6-fluoro-3-methyl-naphthalen-2-yl}-acetic acid]  27 nM
9. Cc1c(CC(=O)O)cc2ccc(F)cc2c1C1CCN(C(=O)Nc2ccc(Cl)cc2Cl)CC1 [Example 33, {4-[1-(2,4-Dichloro-phenylcarbamoyl)-piperidin-4-yl]-6-fluoro-3-methyl-naphthalen-2-yl}-acetic acid]  30 nM
10. Cc1c(CC(=O)O)cc2ccc(F)cc2c1C1CCN(S(=O)(=O)Cc2ccccc2[N+](=O)[O-])CC1 [Example 26, {6-Fluoro-3-methyl-4-[1-(2-nitro-phenylmethanesulfonyl)-piperidin-4-yl]-naphthalen-2-yl}-acetic acid]  32 nM
11. Cc1c(CC(=O)O)cc2ccc(F)cc2c1C1CCN(S(=O)(=O)c2ccccc2Cl)CC1 [Example 14, {4-[1-(2-Chloro-benzenesulfonyl)-piperidin-4-yl]-6-fluoro-3-methyl-naphthalen-2-yl}-acetic acid]  33 nM
12. Cc1c(CC(=O)O)cc2ccc(F)cc2c1C1CCN(S(=O)(=O)Cc2cccc(Cl)c2)CC1 [Example 21, {4-[1-(3-Chloro-phenylmethanesulfonyl)-piperidin-4-yl]-6-fluoro-3-methyl-naphthalen-2-yl}-acetic acid]  45 nM
13. Cc1c(CC(=O)O)cc2ccc(F)cc2c1C1CCN(S(=O)(=O)c2c(Cl)cccc2Cl)CC1 [Example 18, {4-[1-(2,6-Dichloro-benzenesulfonyl)-piperidin-4-yl]-6-fluoro-3-methyl-naphthalen-2-yl}-acetic acid]  58 nM
14. Cc1c(CC(=O)O)cc2ccc(F)cc2c1C1CCN(C(=O)Nc2ccccc2Cl)CC1 [Example 34, {4-[1-(2-Chloro-phenylcarbamoyl)-piperidin-4-yl]-6-fluoro-3-methyl-naphthalen-2-yl}-acetic acid]  59 nM
15. Cc1c(CC(=O)O)cc2ccc(F)cc2c1C1CCN(C(=O)c2ccc(Cl)cc2Cl)CC1 [Example 28, {4-[1-(2,4-Dichloro-benzoyl)-piperidin-4-yl]-6-fluoro-3-methyl-naphthalen-2-yl}-acetic acid]  60 nM
16. Cc1c(CC(=O)O)cc2ccc(F)cc2c1C1CCN(C(=O)c2cc(F)ccc2F)CC1 [Example 30, {4-[1-(2,5-Difluoro-benzoyl)-piperidin-4-yl]-6-fluoro-3-methyl-naphthalen-2-yl}-acetic acid]  83 nM
17. Cc1c(CC(=O)O)cc2ccc(F)cc2c1C1CCN(C(=O)Cc2ccccc2)CC1 [Example 31, [6-Fluoro-3-methyl-4-(1-phenylacetyl-piperidin-4-yl)-naphthalen-2-yl]-acetic acid]  117 nM
18. Cc1c(CC(=O)O)cc2ccc(F)cc2c1C1CCN(S(=O)(=O)c2cc(Cl)ccc2Cl)CC1 [Example 17, {4-[1-(2,5-Dichloro-benzenesulfonyl)-piperidin-4-yl]-6-fluoro-3-methyl-naphthalen-2-yl}-acetic acid]  120 nM
19. Cc1c(CC(=O)O)cc2ccc(F)cc2c1C1CCN(S(C)(=O)=O)CC1 [Example 15, [6-Fluoro-4-(1-methanesulfonyl-piperidin-4-yl)-3-methyl-naphthalen-2-yl]-acetic acid]  142 nM
20. COc1ccccc1NC(=O)N1CCC(c2c(C)c(CC(=O)O)cc3ccc(F)cc23)CC1 [Example 35, {6-Fluoro-4-[1-(2-methoxy-phenylcarbamoyl)-piperidin-4-yl]-3-methyl-naphthalen-2-yl}-acetic acid]  241 nM
21. Cc1c(CC(=O)O)cc2ccc(F)cc2c1C1CCN(S(=O)(=O)c2cccc(C(F)(F)F)c2)CC1 [Example 23]  266 nM
22. Cc1c(CC(=O)O)cc2ccc(F)cc2c1C1CCN(C(=O)Nc2c(F)cccc2F)CC1 [Example 32, {4-[1-(2,6-Difluoro-phenylcarbamoyl)-piperidin-4-yl]-6-fluoro-3-methyl-naphthalen-2-yl}-acetic acid]  371 nM
23. Cc1c(CC(=O)O)cc2ccc(F)cc2c1C1CCN(C(=O)Nc2cccc(C(F)(F)F)c2)CC1 [Example 36]  437 nM
